Assay results taken from PubChem BioAssay (NCI).
Values joined by “and” are separate entries in the source; they are usually repeats but may differ in a detail not shown here. Identical values can stand only once.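 In this assay, cells in 96-well plates receive the compound at five concentrations for 48 hours. Endpoints are linearly interpolated between the surrounding concentrations. GI50: concentration for 50% inhibition of growth. TGI: concentration producing complete growth inhibition.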

Legend:
Test in all cases: DTP human tumour cell line panel, 48 h
[1] = tested on: IGROV1 ovarian
[2] = tested on: A549 NSCLC
[3] = tested on: NCI-H522 lung
[4] = tested on: UACC-62 melanoma
[5] = tested on: SF-268 CNS
[6] = tested on: HCT-15 colon
[7] = tested on: MALME-3M melanoma
[8] = tested on: CAKI-1 renal
[9] = tested on: RXF 393 renal
[10] = tested on: SK-MEL-5 melanoma

SMILES | TGI [1] | TGI [2] | TGI [3] | TGI [4] | TGI [5] | TGI [6] | TGI [7] | TGI [8] | TGI [9] | TGI [10] | GI50 [2] | GI50 [7] | GI50 [1] | GI50 [3] | GI50 [5] | GI50 [6] | GI50 [10]
NC(=O)N/N=C(/CC1C(=O)Oc2ccccc21)c1ccccc1O (stereo unspecified) | > 100 µM | > 100 µM | > 100 µM | 63.6 µM | > 100 µM | > 100 µM | > 100 µM | > 100 µM | > 100 µM | > 100 µM | – | – | – | – | – | – | –
Brc1ccc(C[P+]2(c3ccccc3)CCCCC2)cc1 | > 100 µM | > 100 µM | > 100 µM | > 100 µM | – | > 100 µM | > 100 µM | – | > 100 µM | 39.1 µM | – | – | – | – | – | – | –
O=C(N/N=C/c1cc(Cl)cc(Cl)c1[O-])c1ccccc1O.O=C(N/N=C/c1cc(Cl)cc(Cl)c1[O-])c1ccccc1O.[Co+2] | 6.97 µM | 13.2 µM | 1.63 µM | 3.43 µM | 21.2 µM | 13.8 µM | 16 µM | 6.3 µM | 8.46 µM | 2.53 µM | 0.532 µM | 2.19 µM | – | – | – | – | –
O=C(O)Cc1ccc(Nc2nc3cc(C(F)(F)F)ccc3nc2C(=O)O)cc1 | > 100 µM | > 100 µM | > 100 µM | > 100 µM | > 100 µM | > 100 µM | > 100 µM | > 100 µM | > 100 µM | > 100 µM | – | – | – | – | – | – | –
CS(=O)(=O)c1nc(-c2cc3c(c(S(C)(=O)=O)n2)CCCC3)cc2c1CCCCC2 | 54.3 µM | > 100 µM | > 100 µM | > 100 µM | 85.1 µM | > 100 µM | – | > 100 µM | > 100 µM | > 100 µM | – | – | – | – | – | – | –
COC(=O)CCC1=C(CC(=O)OC)C(C)(OC)N=C1NC(=O)OCc1ccccc1 (stereo unspecified) | > 100 µM | > 100 µM | > 100 µM | > 100 µM | > 100 µM | > 100 µM | > 100 µM | > 100 µM | > 100 µM | > 100 µM | – | – | – | – | – | – | –
O=C(O)C(O)C(O)C(=O)O (stereo unspecified) | > 100 µM | > 100 µM | > 100 µM | > 100 µM | > 100 µM | > 100 µM | > 100 µM | > 100 µM | > 100 µM | > 100 µM | – | – | – | – | – | – | –
COC(CN(C(C)=O)C1CCC2(SCCS2)c2[nH]c3ccccc3c21)OC (stereo unspecified) | > 100 µM | > 100 µM | > 100 µM | – | > 100 µM | > 100 µM | > 100 µM | > 100 µM | > 100 µM | > 100 µM | – | – | – | – | – | – | –
O=C1C(Br)=C(c2ccccc2)O/C1=C/C(=O)c1ccc(Br)cc1 | > 100 µM | – | 39.1 µM | > 100 µM | > 100 µM | > 100 µM | > 100 µM | 35 µM | 46.9 µM | > 100 µM | – | – | – | – | – | – | –
CCOC(=O)c1[nH]c(Br)c(-c2ccc(OC)c(OC)c2)c1Br | 11.9 µM | 23 µM | 0.349 µM | 22 µM | 35.7 µM | 15.4 µM | – | – | 0.0424 µM | 4.3 µM and 6.5 µM | 0.0564 µM | – | 0.0494 µM | 0.0328 µM | 1.03 µM | 0.04 µM | 0.0339 µM
[N-]=[N+]=NC1OC(=O)C(Cl)=C1N=P(c1ccccc1)(c1ccccc1)c1ccccc1 (stereo unspecified) | > 10 µM | > 10 µM | > 10 µM | > 10 µM | > 10 µM | > 10 µM | > 10 µM | > 10 µM | > 10 µM | > 10 µM | – | – | – | – | – | – | –
Cc1cc2/c(=C\c3ccc(N(C)C)cc3)c3ccccc3n2[n+]1C | 6.76 µM | – | 1.99 µM | 2.95 µM | 6.57 µM | 34.7 µM | 2.98 µM | 22.3 µM | 10.4 µM | 1.58 µM | – | – | – | – | – | – | –
CCOC(=O)C1=C(O)C2C3CC4C2C(O)=C(C(=O)OCC)C2C1C3C42 (stereo unspecified) | > 100 µM | > 100 µM | > 100 µM | > 100 µM | > 100 µM | > 100 µM | > 100 µM | > 100 µM | > 100 µM | > 100 µM | – | – | – | – | – | – | –
COc1c(/C=C/C(C)(C)O)cc(C2CC(=O)c3c(O)cc(O)cc3O2)cc1CC=C(C)C (stereo unspecified) | – | 19.8 µM | 18.6 µM | 13.3 µM | 19.2 µM | 17.5 µM | 18 µM | > 50 µM | 15.3 µM | 15.6 µM | – | – | – | – | – | – | –
Cc1ccc(/C=N/n2c(-c3ccc(C)cc3)n[nH]c2=O)cc1 | > 100 µM | > 100 µM | > 100 µM | > 100 µM | > 100 µM | > 100 µM | > 100 µM | > 100 µM | 72.9 µM | > 100 µM | – | – | – | – | – | – | –
O=C(c1nc2ccc([N+](=O)[O-])cc2[nH]c1=O)C(O)c1ccc2c(c1)OCO2 (stereo unspecified) | > 100 µM | > 100 µM | > 100 µM | > 100 µM | > 100 µM | > 100 µM | > 100 µM | > 100 µM | > 100 µM | > 100 µM | – | – | – | – | – | – | –
COc1cc2c(cc1OC)C(=O)N(c1ccc(O)cc1)C2=O | > 100 µM | > 100 µM | > 100 µM | > 100 µM | > 100 µM | > 100 µM | > 100 µM | > 100 µM | > 100 µM | > 100 µM | – | – | – | – | – | – | –
Cc1nc(CC#N)n[nH]1 | > 100 µM | > 100 µM | > 100 µM | > 100 µM | > 100 µM | > 100 µM | – | – | > 100 µM | > 100 µM | – | – | – | – | – | – | –
COc1ccc(C(=O)O[C@H]2[C@@H]3C=CO[C@@H](OC4OC(CO)C(O)C(O)C4O)[C@@H]3[C@@]3(CO)O[C@@H]23)cc1O (stereo partly specified) | > 100 µM | > 100 µM | > 100 µM | > 100 µM | > 100 µM | – | > 100 µM | > 100 µM | > 100 µM | > 100 µM | – | – | – | – | – | – | –
CCN(CC)CCCNc1ccc2nc(C)n3c4ccc(O)cc4c(=O)c1c23 | 9.79 µM | 18.7 µM | 14.3 µM | 23.5 µM | 17.2 µM | 15.6 µM | 22.8 µM | 23.6 µM | 15 µM | 24.5 µM | – | – | – | – | – | – | –
O=S(=O)(O)c1cc(N=Nc2c(O)ccc3ccccc23)ccc1/C=C/c1ccc(N=Nc2c(O)ccc3ccccc23)cc1S(=O)(=O)O | > 100 µM | > 100 µM | > 100 µM | > 100 µM | > 100 µM | > 100 µM | > 100 µM | > 100 µM | > 100 µM | > 100 µM | – | – | – | – | – | – | –
